EPA's CvTdb concentration-time database

Columns and labels:
Rat [1] = test: concentration in plasma after dosing
Rat [2] = test: concentration in brain after dosing
Rat [3] = test: concentration in liver after dosing; details: dosed: Fluorotelomer alcohol 8+2, oral
Rat [4] = test: concentration in kidney after dosing; details: dosed: Fluorotelomer alcohol 8+2, oral

CC1CCCO1 (stereo unspecified) [2-Methyltetrahydrofuran]
dosed: 2-Methyltetrahydrofuran, 40 mg/kg, iv, Harlan Sprague Dawley
Details	concentration in brain, Rat [2] [ng/mL]	concentration in plasma, Rat [1] [ng/mL]
0.2 h, Male	24700	35000
0.5 h, Female	15400	27200
0.5 h, Male	13500	32200
0.75 h, Male	22000	24000
1.5 h, Male	9210	14000
2 h, Female	5700	7560
2 h, Male	9630	10700
2 min, Female	41700	73300
2 min, Male	32400	50000
4 h, Female	73.6	101
4 h, Male	356	977
6 h, Female	–	13.3
6 h, Male	21.5	8.93
7 min, Male	29700	46500

O=C(O)CCC(F)(F)C(F)(F)C(F)(F)C(F)(F)C(F)(F)C(F)(F)C(F)(F)F [Fluorotelomer acid 7+3]
Details	concentration in kidney, Rat [4] [ng/g]	concentration in liver, Rat [3] [ng/g]
0.5 h, 24 mg/kg, Male, Harlan Sprague Dawley	224	300
0.5 h, 24 mg/kg, Male, Harlan Sprague Dawley - this seems too small	129	195
0.5 h, 80 mg/kg, Female, Harlan Sprague Dawley	418	1070
1 h, 24 mg/kg, Male, Harlan Sprague Dawley	291	784
1 h, 80 mg/kg, Female, Harlan Sprague Dawley	883	2270
3 h, 24 mg/kg, Male, Harlan Sprague Dawley	1640	3250
3 h, 80 mg/kg, Female, Harlan Sprague Dawley	3250	8230
6 h, 24 mg/kg, Male, Harlan Sprague Dawley	1200	3160
6 h, 80 mg/kg, Female, Harlan Sprague Dawley	6470	8110
12 h, 24 mg/kg, Male, Harlan Sprague Dawley	930	2590
12 h, 80 mg/kg, Female, Harlan Sprague Dawley	3150	9470

Details	concentration in brain [ng/g]	concentration in plasma [ng/mL]
Rat [1], 0.25 h, dosed: 678-39-7, 12 mg/kg, iv, Male, F344	–	45.5
Rat [1], 0.25 h, dosed: 678-39-7, 40 mg/kg, iv, Male, F344	–	80.9
Rat [1], 0.25 h, dosed: Fluorotelomer alcohol 8+2, 12 mg/kg, oral, Male, Harlan Sprague Dawley	–	21.6
Rat [1], 0.5 h, dosed: 678-39-7, 12 mg/kg, iv, Male, F344	–	157
Rat [1], 0.5 h, dosed: 678-39-7, 40 mg/kg, iv, Female, Harlan Sprague-Dawley	–	400
Rat [1], 0.5 h, dosed: 678-39-7, 40 mg/kg, iv, Male, F344	–	640
Rat [1], 0.5 h, dosed: Fluorotelomer alcohol 8+2, 12 mg/kg, oral, Male, Harlan Sprague Dawley	–	123
Rat [1], 0.75 h, dosed: 678-39-7, 12 mg/kg, iv, Male, F344	–	242
Rat [1], 0.75 h, dosed: 678-39-7, 40 mg/kg, iv, Female, Harlan Sprague-Dawley	–	773
Rat [1], 0.75 h, dosed: Fluorotelomer alcohol 8+2, 12 mg/kg, oral, Male, Harlan Sprague Dawley	–	405
Rat [1], 1 h, dosed: 678-39-7, 12 mg/kg, iv, Male, F344	–	455
Rat [1], 1 h, dosed: 678-39-7, 40 mg/kg, iv, Female, Harlan Sprague-Dawley	–	1490
Rat [1], 1 h, dosed: Fluorotelomer alcohol 8+2, 12 mg/kg, oral, Male, Harlan Sprague Dawley	–	317
Rat [1], 3 h, dosed: 678-39-7, 12 mg/kg, iv, Male, F344	–	700
Rat [1], 3 h, dosed: 678-39-7, 40 mg/kg, iv, Male, F344	–	2420
Rat [1], 3 h, dosed: Fluorotelomer alcohol 8+2, 12 mg/kg, oral, Male, Harlan Sprague Dawley	–	794
Rat [1], 5 min, dosed: 678-39-7, 12 mg/kg, iv, Male, F344	–	8.32
Rat [1], 5 min, dosed: 678-39-7, 40 mg/kg, iv, Male, F344	–	21.4
Rat [1], 6 h, dosed: 678-39-7, 12 mg/kg, iv, Male, F344	–	762
Rat [1], 6 h, dosed: 678-39-7, 40 mg/kg, iv, Male, F344	–	1630
Rat [1], 6 h, dosed: Fluorotelomer alcohol 8+2, 12 mg/kg, oral, Male, Harlan Sprague Dawley	–	619
Rat [1], 9 h, dosed: 678-39-7, 12 mg/kg, iv, Male, F344	–	110
Rat [1], 9 h, dosed: 678-39-7, 40 mg/kg, iv, Female, Harlan Sprague-Dawley	–	366
Rat [1], 9 h, dosed: 678-39-7, 40 mg/kg, iv, Male, F344	–	481
Rat [1], 9 h, dosed: Fluorotelomer alcohol 8+2, 12 mg/kg, oral, Male, Harlan Sprague Dawley	–	143
Rat [1], 12 h, dosed: 678-39-7, 12 mg/kg, iv, Male, F344	–	63.3
Rat [1], 12 h, dosed: 678-39-7, 40 mg/kg, iv, Female, Harlan Sprague-Dawley	–	130
Rat [1], 12 h, dosed: Fluorotelomer alcohol 8+2, 12 mg/kg, oral, Male, Harlan Sprague Dawley	–	159
Rat [1], 24 h, dosed: 678-39-7, 12 mg/kg, iv, Male, F344	–	98.6
Rat [1], 24 h, dosed: 678-39-7, 40 mg/kg, iv, Female, Harlan Sprague-Dawley	–	498
Rat [1], 24 h, dosed: Fluorotelomer alcohol 8+2, 12 mg/kg, oral, Male, Harlan Sprague Dawley	–	189
Rat [1], 48 h, dosed: Fluorotelomer alcohol 8+2, 12 mg/kg, oral, Male, Harlan Sprague Dawley	–	112
Rat [1], 192 h, dosed: 678-39-7, 12 mg/kg, iv, Male, F344	–	22.5
Rat [1], 192 h, dosed: 678-39-7, 40 mg/kg, iv, Male, F344	–	134
Rat [1], 192 h, dosed: Fluorotelomer alcohol 8+2, 12 mg/kg, oral, Male, Harlan Sprague Dawley	–	42.1
Rat [1], 192 h, dosed: Fluorotelomer alcohol 8+2, 24 mg/kg, oral, Male, Harlan Sprague Dawley	–	53
Rat [2], 0.5 h, dosed: Fluorotelomer alcohol 8+2, 24 mg/kg, oral, Male, Harlan Sprague Dawley	109	–
Rat [2], 0.5 h, dosed: Fluorotelomer alcohol 8+2, 24 mg/kg, oral, Male, Harlan Sprague Dawley - this seems too small	47.2	–
Rat [2], 0.5 h, dosed: Fluorotelomer alcohol 8+2, 80 mg/kg, oral, Female, Harlan Sprague Dawley	139	–
Rat [2], 1 h, dosed: Fluorotelomer alcohol 8+2, 24 mg/kg, oral, Male, Harlan Sprague Dawley	130	–
Rat [2], 1 h, dosed: Fluorotelomer alcohol 8+2, 80 mg/kg, oral, Female, Harlan Sprague Dawley	391	–
Rat [2], 3 h, dosed: Fluorotelomer alcohol 8+2, 24 mg/kg, oral, Male, Harlan Sprague Dawley	425	–
Rat [2], 3 h, dosed: Fluorotelomer alcohol 8+2, 80 mg/kg, oral, Female, Harlan Sprague Dawley	870	–
Rat [2], 6 h, dosed: Fluorotelomer alcohol 8+2, 24 mg/kg, oral, Male, Harlan Sprague Dawley	365	–
Rat [2], 6 h, dosed: Fluorotelomer alcohol 8+2, 80 mg/kg, oral, Female, Harlan Sprague Dawley	1250	–
Rat [2], 12 h, dosed: Fluorotelomer alcohol 8+2, 24 mg/kg, oral, Male, Harlan Sprague Dawley	222	–
Rat [2], 12 h, dosed: Fluorotelomer alcohol 8+2, 80 mg/kg, oral, Female, Harlan Sprague Dawley	632	–
